One test deals with T1, HiBit-BRM fusion protein (Homo sapiens, UniProt P51531).
T1 construct: expressed in transfected cells
In words: HiBiT-BRM cell-based degradation assay (Nano-Glo HiBiT Lytic Detection, 24 h). As to conditions: stable HeLa cell line expressing HiBiT-BRM; for DC50: read-out: BRM HiBit Degradation IC50. The essentials:
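Luminescence from LgBiT complementation after lysis measured HiBiT-BRM levels in stably expressing HeLa cells. Compounds were dosed at up to 30 μM final, in 3-fold 10-point dilutions, for 24 h. Percent degradation was scaled between DMSO wells and wells treated with 2 μM standard BRM/BRG1 degrader.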

For test [1], the target named is T2, HiBit-BRG1 fusion protein (Homo sapiens, UniProt P51532).
T2 construct: expressed in transfected cells
T2 sequence (P51532 whole entry, the tested form may be a part): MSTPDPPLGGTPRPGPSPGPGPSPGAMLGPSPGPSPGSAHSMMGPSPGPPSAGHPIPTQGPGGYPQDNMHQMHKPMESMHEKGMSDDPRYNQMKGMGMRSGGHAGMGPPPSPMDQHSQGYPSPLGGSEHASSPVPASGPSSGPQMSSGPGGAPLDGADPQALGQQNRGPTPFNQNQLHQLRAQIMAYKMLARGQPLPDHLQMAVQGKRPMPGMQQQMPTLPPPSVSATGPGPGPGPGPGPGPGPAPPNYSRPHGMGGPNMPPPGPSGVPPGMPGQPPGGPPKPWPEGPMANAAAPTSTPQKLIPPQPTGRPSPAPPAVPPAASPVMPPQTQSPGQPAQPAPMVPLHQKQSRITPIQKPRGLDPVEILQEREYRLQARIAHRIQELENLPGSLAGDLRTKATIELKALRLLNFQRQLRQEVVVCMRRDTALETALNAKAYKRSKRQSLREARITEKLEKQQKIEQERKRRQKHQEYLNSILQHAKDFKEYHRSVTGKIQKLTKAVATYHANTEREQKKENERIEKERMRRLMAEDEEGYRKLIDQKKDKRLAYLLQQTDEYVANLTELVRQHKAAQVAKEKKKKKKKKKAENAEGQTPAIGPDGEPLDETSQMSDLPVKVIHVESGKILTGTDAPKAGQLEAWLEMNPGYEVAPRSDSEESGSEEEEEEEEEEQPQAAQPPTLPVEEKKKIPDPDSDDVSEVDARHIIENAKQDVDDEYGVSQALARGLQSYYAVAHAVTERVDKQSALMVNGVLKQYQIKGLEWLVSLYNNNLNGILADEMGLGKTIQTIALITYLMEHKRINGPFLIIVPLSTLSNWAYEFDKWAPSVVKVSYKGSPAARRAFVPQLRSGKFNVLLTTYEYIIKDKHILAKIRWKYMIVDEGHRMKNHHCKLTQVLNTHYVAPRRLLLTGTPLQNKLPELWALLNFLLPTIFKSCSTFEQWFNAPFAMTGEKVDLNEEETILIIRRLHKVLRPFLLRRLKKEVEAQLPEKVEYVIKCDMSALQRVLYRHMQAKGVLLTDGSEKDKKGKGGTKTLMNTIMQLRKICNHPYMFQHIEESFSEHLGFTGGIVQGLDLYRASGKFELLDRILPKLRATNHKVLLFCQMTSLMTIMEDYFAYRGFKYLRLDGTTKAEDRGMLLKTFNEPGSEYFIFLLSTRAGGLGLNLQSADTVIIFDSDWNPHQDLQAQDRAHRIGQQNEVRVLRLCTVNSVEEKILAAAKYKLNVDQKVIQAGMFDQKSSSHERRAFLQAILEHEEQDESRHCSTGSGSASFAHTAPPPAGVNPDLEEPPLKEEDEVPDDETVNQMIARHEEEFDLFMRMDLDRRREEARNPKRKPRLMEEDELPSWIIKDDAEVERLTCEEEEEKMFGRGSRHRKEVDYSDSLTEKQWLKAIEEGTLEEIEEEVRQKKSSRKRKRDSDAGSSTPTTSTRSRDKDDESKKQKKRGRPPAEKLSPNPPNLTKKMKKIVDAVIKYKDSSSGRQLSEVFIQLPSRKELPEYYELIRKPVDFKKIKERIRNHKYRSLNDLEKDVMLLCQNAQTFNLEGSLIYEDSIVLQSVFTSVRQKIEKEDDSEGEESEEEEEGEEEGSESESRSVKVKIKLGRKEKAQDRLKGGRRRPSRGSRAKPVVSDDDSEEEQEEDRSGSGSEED
Put plainly: HiBiT-BRG1 cell-based degradation assay (Nano-Glo HiBiT Lytic Detection, 24 h). As to conditions: stable HeLa cell line expressing HiBit-BRG1 and LgBit; for Dmax: read-out: BRG1 HiBit Degradation Maximum (%); for DC50: read-out: BRMG1 HiBit Degradation IC50. In short, it runs like this: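 Degradation read by lytic NanoBiT luminescence after 24 h compound exposure of a stable HiBit-BRG1/LgBit HeLa line. Ten-point, 3-fold series in duplicate, top final dose 30 μM; DMSO and 2 μM standard degrader define 0% and 100% degradation.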

Molecules are shown by their SMILES.

T1 sequence (P51531 whole entry, the tested form may be a part): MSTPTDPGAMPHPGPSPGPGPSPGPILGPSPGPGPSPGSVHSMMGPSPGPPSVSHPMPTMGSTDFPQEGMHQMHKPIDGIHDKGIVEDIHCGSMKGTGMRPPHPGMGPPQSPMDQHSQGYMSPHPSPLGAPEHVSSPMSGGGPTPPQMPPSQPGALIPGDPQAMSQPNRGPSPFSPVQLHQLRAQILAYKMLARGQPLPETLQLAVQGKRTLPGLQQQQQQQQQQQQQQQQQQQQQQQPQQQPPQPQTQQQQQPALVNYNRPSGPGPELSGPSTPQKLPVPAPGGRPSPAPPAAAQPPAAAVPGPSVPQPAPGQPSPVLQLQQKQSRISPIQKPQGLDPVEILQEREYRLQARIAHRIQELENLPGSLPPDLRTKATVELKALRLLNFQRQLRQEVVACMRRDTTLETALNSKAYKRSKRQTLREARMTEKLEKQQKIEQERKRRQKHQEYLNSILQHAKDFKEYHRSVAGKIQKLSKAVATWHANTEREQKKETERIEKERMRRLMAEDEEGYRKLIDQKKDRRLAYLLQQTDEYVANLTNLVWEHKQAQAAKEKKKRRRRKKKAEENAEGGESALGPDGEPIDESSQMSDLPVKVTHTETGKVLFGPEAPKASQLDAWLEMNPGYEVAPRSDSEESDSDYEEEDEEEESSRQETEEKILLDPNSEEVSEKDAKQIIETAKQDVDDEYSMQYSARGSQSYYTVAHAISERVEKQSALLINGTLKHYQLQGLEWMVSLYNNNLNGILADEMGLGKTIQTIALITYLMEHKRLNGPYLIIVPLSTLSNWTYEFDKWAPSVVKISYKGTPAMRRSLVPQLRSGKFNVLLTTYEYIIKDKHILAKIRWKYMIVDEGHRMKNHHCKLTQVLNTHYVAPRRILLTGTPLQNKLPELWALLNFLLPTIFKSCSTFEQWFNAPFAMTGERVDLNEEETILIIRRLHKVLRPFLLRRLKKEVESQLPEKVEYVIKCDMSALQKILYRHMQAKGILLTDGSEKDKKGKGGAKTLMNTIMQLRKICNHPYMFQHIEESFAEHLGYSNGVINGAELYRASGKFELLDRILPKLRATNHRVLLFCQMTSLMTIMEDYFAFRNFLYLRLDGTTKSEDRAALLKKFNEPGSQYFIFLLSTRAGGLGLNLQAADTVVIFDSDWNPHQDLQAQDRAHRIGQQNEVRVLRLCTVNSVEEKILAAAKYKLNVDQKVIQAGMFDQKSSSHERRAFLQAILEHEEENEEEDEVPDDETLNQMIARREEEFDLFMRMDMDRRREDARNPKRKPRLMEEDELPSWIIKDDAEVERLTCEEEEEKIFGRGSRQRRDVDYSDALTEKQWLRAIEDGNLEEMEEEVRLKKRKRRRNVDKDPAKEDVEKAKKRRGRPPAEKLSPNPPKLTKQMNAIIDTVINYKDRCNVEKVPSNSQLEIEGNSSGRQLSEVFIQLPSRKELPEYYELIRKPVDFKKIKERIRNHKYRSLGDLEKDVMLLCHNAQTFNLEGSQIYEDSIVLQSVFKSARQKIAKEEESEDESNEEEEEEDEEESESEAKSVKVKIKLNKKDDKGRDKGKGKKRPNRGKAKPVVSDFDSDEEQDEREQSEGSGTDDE

As for `Cc1ncsc1-c1ccc([C@H](C)NC(=O)[C@@H]2C[C@@H](O)CN2C(=O)[C@@H](c2cc(-c3cnc(N4CC[C@H](c5sc6nnc(-c7ccccc7O)cc6c5C)C4)nc3)no2)C(C)C)cc1` [Compound 41, (2S,4R)-4-hydroxy-1-((R)-2-(3-(2-((S)-3-(3-(2-hydroxyphenyl)-5-methylthieno[2,3-c]pyridazin-6-yl)pyrrolidin-1-yl)pyrimidin-5-yl)isoxazol-5-yl)-3-methylbutanoyl)-N-((S)-1-(4-(4-methylthiazol-5-yl)phenyl)ethyl)pyrrolidine-2-carboxamide], on HiBit-BRM fusion protein, the “BRM HiBit Degradation Maximum (%)” value is “A (“A” indicates maximum degradation ≥75%)” and the DC50 is below 10 nM. Also, in test [1], the Dmax is below 50% and the DC50 was above 1000 nM.

As to `Cc1nc(N2CCC(c3sc4nnc(-c5ccccc5O)cc4c3C)CC2)ccc1-c1cc([C@H](C(=O)N2C[C@H](O)C[C@H]2C(=O)N[C@@H](C)c2ccc(-c3scnc3C)cc2)C(C)C)on1` [Compound 42, (2S,4R)-4-hydroxy-1-((R)-2-(3-(6-(4-(3-(2-hydroxyphenyl)-5-methylthieno[2,3-c]pyridazin-6-yl)piperidin-1-yl)-2-methylpyridin-3-yl)isoxazol-5-yl)-3-methylbutanoyl)-N-((S)-1-(4-(4-methylthiazol-5-yl)phenyl)ethyl)pyrrolidine-2-carboxamide], at HiBit-BRM fusion protein, the “BRM HiBit Degradation Maximum (%)” value is listed as “A (“A” indicates maximum degradation ≥75%)” and the DC50 was below 10 nM. Further, in test [1], the Dmax was above 50% and the DC50 was above 10 nM.

Turning to `Cc1cc(-c2cc([C@H](C(=O)N3C[C@H](O)C[C@H]3C(=O)N[C@@H](C)c3ccc(-c4scnc4C)cc3)C(C)C)on2)cnc1N1CCC(c2sc3nnc(-c4ccccc4O)cc3c2C)CC1` [Compound 43, (2S,4R)-4-hydroxy-1-((R)-2-(3-(6-(4-(3-(2-hydroxyphenyl)-5-methylthieno[2,3-c]pyridazin-6-yl)piperidin-1-yl)-5-methylpyridin-3-yl)isoxazol-5-yl)-3-methylbutanoyl)-N-((S)-1-(4-(4-methylthiazol-5-yl)phenyl)ethyl)pyrrolidine-2-carboxamide], on HiBit-BRM fusion protein, the “BRM HiBit Degradation Maximum (%)” value was “A (“A” indicates maximum degradation ≥75%)” and the DC50 was below 10 nM. In addition, in test [1], the Dmax is below 50% and the DC50 is above 1000 nM.

Turning to `Cc1ncsc1-c1ccc([C@H](C)NC(=O)[C@@H]2C[C@@H](O)CN2C(=O)[C@@H](c2cc(-c3cnc(NC45CC(c6sc7nnc(-c8ccccc8O)cc7c6C)(C4)C5)nc3)no2)C(C)C)cc1` [Compound 44, (2S,4R)-4-hydroxy-1-((R)-2-(3-(2-((3-(3-(2-hydroxyphenyl)-5-methylthieno[2,3-c]pyridazin-6-yl)bicyclo[1.1.1]pentan-1-yl)amino)pyrimidin-5-yl)isoxazol-5-yl)-3-methylbutanoyl)-N-((S)-1-(4-(4-methylthiazol-5-yl)phenyl)ethyl)pyrrolidine-2-carboxamide], at HiBit-BRM fusion protein, the “BRM HiBit Degradation Maximum (%)” value was “A (“A” indicates maximum degradation ≥75%)” and the DC50 was below 10 nM. Also, the Dmax in test [1] was above 75%.

For `Cc1ncsc1-c1ccc([C@H](C)NC(=O)[C@@H]2C[C@@H](O)CN2C(=O)[C@@H](c2cc(N3CCC4(CC3)CC(c3sc5nnc(-c6ccccc6O)cc5c3C)C4)no2)C(C)C)cc1` [Compound 45, (2S,4R)-4-hydroxy-1-((R)-2-(3-(2-(3-(2-hydroxyphenyl)-5-methylthieno[2,3-c]pyridazin-6-yl)-7-azaspiro[3.5]nonan-7-yl)isoxazol-5-yl)-3-methylbutanoyl)-N-((S)-1-(4-(4-methylthiazol-5-yl)phenyl)ethyl)pyrrolidine-2-carboxamide], at HiBit-BRM fusion protein, the “BRM HiBit Degradation Maximum (%)” value is on record as “A (“A” indicates maximum degradation ≥75%)” and the DC50 is above 10 nM. For the same molecule, in test [1], the Dmax was below 50% and the DC50 was above 1000 nM.

Consider `Cc1ncsc1-c1ccc([C@H](C)NC(=O)[C@@H]2C[C@@H](O)CN2C(=O)[C@@H](c2cc(-c3cnc(N4CC5(CC(c6sc7nnc(-c8ccccc8O)cc7c6C)C5)C4)nc3)no2)C(C)C)cc1` [Compound 46, (2S,4R)-4-hydroxy-1-((R)-2-(3-(2-(6-(3-(2-hydroxyphenyl)-5-methylthieno[2,3-c]pyridazin-6-yl)-2-azaspiro[3.3]heptan-2-yl)pyrimidin-5-yl)isoxazol-5-yl)-3-methylbutanoyl)-N-((S)-1-(4-(4-methylthiazol-5-yl)phenyl)ethyl)pyrrolidine-2-carboxamide], for which, at HiBit-BRM fusion protein, the “BRM HiBit Degradation Maximum (%)” value was “A (“A” indicates maximum degradation ≥75%)” and the DC50 was below 10 nM. In test [1], the Dmax was below 50% and the DC50 was above 1000 nM.

Consider `Cc1ncsc1-c1ccc([C@H](C)NC(=O)[C@@H]2C[C@@H](O)CN2C(=O)[C@@H](c2cc(-c3cnc(N4CC[C@@H](c5sc6nnc(-c7ccccc7O)cc6c5C)C4)nc3)no2)C(C)C)cc1` [Compound 47, (2S,4R)-4-hydroxy-1-((R)-2-(3-(2-((R)-3-(3-(2-hydroxyphenyl)-5-methylthieno[2,3-c]pyridazin-6-yl)pyrrolidin-1-yl)pyrimidin-5-yl)isoxazol-5-yl)-3-methylbutanoyl)-N-((S)-1-(4-(4-methylthiazol-5-yl)phenyl)ethyl)pyrrolidine-2-carboxamide], for which, at HiBit-BRM fusion protein, the “BRM HiBit Degradation Maximum (%)” value is recorded as “A (“A” indicates maximum degradation ≥75%)” and the DC50 is above 10 nM. In addition, in test [1], the Dmax is above 75% and the DC50 was below 10 nM.

Turning to `Cc1ncsc1-c1ccc([C@H](C)NC(=O)[C@@H]2C[C@@H](O)CN2C(=O)[C@@H](c2cc(-c3cnc(N4CCC5(CC4)CC(c4sc6nnc(-c7ccccc7O)cc6c4C)C5)nc3)no2)C(C)C)cc1` [Compound 48, (2S,4R)-4-hydroxy-1-((R)-2-(3-(2-(2-(3-(2-hydroxyphenyl)-5-methylthieno[2,3-c]pyridazin-6-yl)-7-azaspiro[3.5]nonan-7-yl)pyrimidin-5-yl)isoxazol-5-yl)-3-methylbutanoyl)-N-((S)-1-(4-(4-methylthiazol-5-yl)phenyl)ethyl)pyrrolidine-2-carboxamide], on HiBit-BRM fusion protein, the “BRM HiBit Degradation Maximum (%)” value is “A (“A” indicates maximum degradation ≥75%)” and the DC50 was above 10 nM. For the same molecule, in test [1], the Dmax was below 50% and the DC50 was above 1000 nM.

Take `Cc1ncsc1-c1ccc([C@H](C)NC(=O)[C@@H]2C[C@@H](O)CN2C(=O)[C@@H](c2cc(-c3ccc(N4CC(c5sc6nnc(-c7ccccc7O)cc6c5C)C4)nc3)no2)C(C)C)cc1` [Compound 49, (2S,4R)-4-hydroxy-1-((R)-2-(3-(6-(3-(3-(2-hydroxyphenyl)-5-methylthieno[2,3-c]pyridazin-6-yl)azetidin-1-yl)pyridin-3-yl)isoxazol-5-yl)-3-methylbutanoyl)-N-((S)-1-(4-(4-methylthiazol-5-yl)phenyl)ethyl)pyrrolidine-2-carboxamide]: on HiBit-BRM fusion protein, the “BRM HiBit Degradation Maximum (%)” value is “B (“B” indicates maximum degradation ≥50%)” and the DC50 was above 10 nM. In test [1], the Dmax was below 50% and the DC50 is above 1000 nM.

As for `Cc1ncsc1-c1ccc([C@H](C)NC(=O)[C@@H]2C[C@@H](O)CN2C(=O)[C@@H](c2cc(-c3ccc(N4CC(c5sc6nnc(-c7ccccc7O)cc6c5C)C4)nn3)no2)C(C)C)cc1` [Compound 50, (2S,4R)-4-hydroxy-1-((R)-2-(3-(6-(3-(3-(2-hydroxyphenyl)-5-methylthieno[2,3-c]pyridazin-6-yl)azetidin-1-yl)pyridazin-3-yl)isoxazol-5-yl)-3-methylbutanoyl)-N-((S)-1-(4-(4-methylthiazol-5-yl)phenyl)ethyl)pyrrolidine-2-carboxamide], on HiBit-BRM fusion protein, the “BRM HiBit Degradation Maximum (%)” value is “A (“A” indicates maximum degradation ≥75%)” and the DC50 is above 10 nM. Also, in test [1], the Dmax was below 50% and the DC50 was above 1000 nM.

Consider `Cc1ncsc1-c1ccc([C@H](C)NC(=O)[C@@H]2C[C@@H](O)CN2C(=O)[C@@H](c2cc(-c3cnc(N4CCC(O)(c5sc6nnc(-c7ccccc7O)cc6c5C)CC4)nc3)no2)C(C)C)cc1` [Compound 52, (2S,4R)-4-hydroxy-1-((R)-2-(3-(2-(4-hydroxy-4-(3-(2-hydroxyphenyl)-5-methylthieno[2,3-c]pyridazin-6-yl)piperidin-1-yl)pyrimidin-5-yl)isoxazol-5-yl)-3-methylbutanoyl)-N-((S)-1-(4-(4-methylthiazol-5-yl)phenyl)ethyl)pyrrolidine-2-carboxamide], for which, on HiBit-BRM fusion protein, the “BRM HiBit Degradation Maximum (%)” value was “B (“B” indicates maximum degradation ≥50%)” and the DC50 is above 10 nM. In test [1], the Dmax was below 50% and the DC50 is above 1000 nM.

`Cc1ncsc1-c1ccc([C@H](C)NC(=O)[C@@H]2C[C@@H](O)CN2C(=O)[C@@H](c2cc(-c3cnc(N4CCN(c5sc6nnc(-c7ccccc7O)cc6c5C)CC4)nc3)no2)C(C)C)cc1` [Compound 53, (2S,4R)-4-hydroxy-1-((R)-2-(3-(2-(4-(3-(2-hydroxyphenyl)-5-methylthieno[2,3-c]pyridazin-6-yl)piperazin-1-yl)pyrimidin-5-yl)isoxazol-5-yl)-3-methylbutanoyl)-N-((S)-1-(4-(4-methylthiazol-5-yl)phenyl)ethyl)pyrrolidine-2-carboxamide]: at HiBit-BRM fusion protein, the “BRM HiBit Degradation Maximum (%)” value is on record as “A (“A” indicates maximum degradation ≥75%)” and the DC50 is below 10 nM. Besides, in test [1], the Dmax is above 75% and the DC50 is above 10 nM.

(Values after patent US20250304596A1, “PYRAZINE DERIVATIVES AND USES THEREOF” (FOGHORN THERAPEUTICS INC., priority 2022, published 2025).)
